Measurements published in patent US20250179047A1, “5-[7-(3,4-DIHYDRO-1H-ISOQUINOLINE-2-CARBONYL)-1,2,3,4 TETRAHYDROISOQUINOLIN-6-YL]-1H-PYRROLE-3-CARBOXAMIDE DERIVATIVES, PHARMACEUTICAL COMPOSITIONS CONTAINING THEM AND THEIR USES AS PRO-APOPTOTIC AGENTS” (LES LABORATOIRES SERVIER, priority 2022, published 2025).

What was measured:
BCL2 G101V [1] = molecular target: BCL2 G101V (Homo sapiens, UniProt P10415, G101V); test: TR-FRET competitive binding assay, BCL2 G101V; details: BCL2 G101V; Ki determined from IC50; read-out: TR_FRET EKI_Bcl2 G101V
Outline: (§1)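 Ki derived from IC50 (11-point dilution, 520/495 nm emission ratio) for displacing a fluorescein-labelled PUMA peptide (2 or 20 nM). Target was 0.5 nM E. coli-expressed Halo-tagged BCL2 (1-207) or BCLXL (2-196), terbium-labelled on Halo. Incubation 2 h at 23°C in pH 7.5 Hepes with 150 mM NaCl and 5% DMSO.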

BCL2 G101V [2] = test: TR-FRET competitive binding assay, BCL2 G101V; parameters: species or system human; details: ratio Ki BCL2 G101V / Ki BCL2 WT
Outline: as §1

BCL2 D103Y = BCL2 D103Y (Homo sapiens, UniProt P10415, D103Y); test: TR-FRET competitive binding assay, BCL2 D103Y; details: Ki determined from IC50, read-out: TR_FRET EKI_Bcl2 D103Y
Outline: as §1

BCLXL WT = BCLXL WT (Homo sapiens (Human), UniProt Q07817); test: TR-FRET competitive binding assay, BCLXL WT; details: for Ki: BCLXL WT, Ki determined from IC50, read-out: TR_FRET EKI BclxL; for TR_FRET EKI BCLxL/WT selectivty ratio: ratio Ki BCLxL / Ki BCL2 WT
Chain of BCLXL WT (Q07817 other isoform, or with tags, fused parts or gaps): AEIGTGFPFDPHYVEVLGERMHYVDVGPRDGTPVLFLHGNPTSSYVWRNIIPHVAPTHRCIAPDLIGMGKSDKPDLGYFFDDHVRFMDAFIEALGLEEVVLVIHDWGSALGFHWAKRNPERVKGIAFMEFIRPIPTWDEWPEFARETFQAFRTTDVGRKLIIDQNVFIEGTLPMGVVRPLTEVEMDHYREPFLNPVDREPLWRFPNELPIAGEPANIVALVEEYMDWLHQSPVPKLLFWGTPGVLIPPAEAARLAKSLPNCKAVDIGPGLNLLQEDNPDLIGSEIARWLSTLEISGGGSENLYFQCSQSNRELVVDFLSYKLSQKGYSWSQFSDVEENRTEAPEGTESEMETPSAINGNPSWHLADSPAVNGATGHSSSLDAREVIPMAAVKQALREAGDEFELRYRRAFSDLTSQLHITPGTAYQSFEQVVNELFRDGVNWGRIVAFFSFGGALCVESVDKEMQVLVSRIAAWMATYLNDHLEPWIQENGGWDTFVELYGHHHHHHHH
Outline: as §1

KMS12PE Bcl2 WT = test: In vitro cytotoxicity CellTiterGlo 72 h, KMS12PE Bcl2 WT; type: cell-based; details: Homo sapiens, KMS-12-PE, read-out: C50 nM, KMS12PE Bcl2 WT
Description: (§2) KMS-12-PE (ACC 606) were purchased from the Leibniz-Institute DSMZ (Braunschweig, Germany) and were grown at 37° C. in a humidified atmosphere with 5% CO2 in media recommended by the suppliers. Lentiviral particles containing Bcl-2 wild type (also named “Bcl2 WT”), Bcl-2 mutated on G101V (also named “Bcl2 G101V”), Bcl-2 mutated on D103Y (also named “Bcl2 D103Y”), Bcl-2 mutated on D103V (also named “Bcl2 D103V”), Bcl-2 mutated on D103E (also named “Bcl2 D103E”), Bcl-2 mutated on F104I (also named “Bcl2 F104I”), Bcl-2 mutated on F104L (also named “Bcl2 F104L”), Bcl-2 mutated on D111A (also named “Bcl2 D111A”), Bcl-2 mutated on A113G (also named “Bcl2 A113G”), Bcl-2 mutated on R129L (also named “Bcl2 R129L”), Bcl-2 mutated on V156D (also named “Bcl2 V156D”) were cloned into pcLV-CMV-DEST-IRES-TagRFP. Lentiviral particles (1×10^6) were mixed with Polybrene at 8 μg/ml and transduced by spinoculation for 1 h at 32° C. and incubated overnight. After 8 days, TagRFP positive-cells were sorted by FACS. BCL2 expression was monitored by immunoblotting using anti-Flag and anti-BCL2 antibodies. Cells were seeded into 96-wells plates and treated with 1:3.16 serial dilution of compounds (9 different concentrations). Cell viability was assessed using CellTiterGlo reagent following treatment for 72 h. Results were normalized to the viability of cells without compounds (control wells). The C50 values were calculated using nonlinear regression algorithms in XCell software.

KMS12PE Bcl2 G101V = test: In vitro cytotoxicity CellTiterGlo 72 h, KMS12PE Bcl2 G101V; type: cell-based; details: Homo sapiens, KMS-12-PE, read-out: C50 nM, KMS12PE Bcl2 G101V
Description: as §2

KMS12PE Bcl2 D103Y = test: In vitro cytotoxicity CellTiterGlo 72 h, KMS12PE Bcl2 D103Y; type: cell-based; details: Homo sapiens, KMS-12-PE, read-out: C50 nM, KMS12PE Bcl2 D103Y
Description: as §2

KMS12PE Bcl2 D103E = test: In vitro cytotoxicity CellTiterGlo 72 h, KMS12PE Bcl2 D103E; type: cell-based; details: Homo sapiens, KMS-12-PE, read-out: C50 nM, KMS12PE Bcl2 D103E
Description: as §2

KMS12PE Bcl2 R129L = test: In vitro cytotoxicity CellTiterGlo 72 h, KMS12PE Bcl2 R129L; type: cell-based; details: Homo sapiens, KMS-12-PE, read-out: C50 nM, KMS12PE Bcl2 R129L
Description: as §2

KMS12PE Bcl2 D103V = test: In vitro cytotoxicity CellTiterGlo 72 h, KMS12PE Bcl2 D103V; type: cell-based; details: Homo sapiens, KMS-12-PE, read-out: C50 nM, KMS12PE Bcl2 D103V
Description: as §2

## Cc1c(N(C(=O)c2cc(-c3cc4c(cc3C(=O)N3Cc5ccccc5C[C@H]3C)CN(C(=O)Cc3ccc(CCN5CCC(F)(F)CC5)cc3)CC4)n(C)c2C)c2ccc(O)cc2)cc(C#N)n1C [Example 51, N-(5-cyano-1,2-dimethylpyrrol-3-yl)-5-[2-(2-{4-[2-(4,4-difluoropiperidin-1-yl)ethyl]phenyl}acetyl)-7-{[(3R)-3-methyl-3,4-dihydro-1H-isoquinolin-2-yl]carbonyl}-3,4-dihydro-1H-isoquinolin-6-yl]-N-(4-hydroxyphenyl)-1,2-dimethylpyrrole-3-carboxamide]
BCL2 G101V [1]
  Ki: 1 nM
BCL2 G101V [2]
  TR_FRET EKI G101V/WT selectivty ratio: 4.5
BCL2 D103Y
  Ki: 0.92 nM
BCLXL WT
  Ki: 4.4 nM
  TR_FRET EKI BCLxL/WT selectivty ratio: 20.0
KMS12PE Bcl2 WT
  IC50: 2.82 nM
KMS12PE Bcl2 G101V
  IC50: 20.2 nM
KMS12PE Bcl2 D103Y
  IC50: 2.79 nM
KMS12PE Bcl2 D103E
  IC50: 2.81 nM
KMS12PE Bcl2 R129L
  IC50: 3.22 nM
KMS12PE Bcl2 D103V
  IC50: 4.63 nM

## COC[C@@H]1Cc2ccccc2CN1C(=O)c1cc2c(cc1-c1cc(C(=O)N(c3ccc(O)cc3)c3cc(C#N)n(C)c3C)c(C)n1C)CCN(C(=O)Cc1ccc(OCCC3CCOCC3)cc1F)C2 [Example 52, N-(5-cyano-1,2-dimethylpyrrol-3-yl)-5-[2-(2-{2-fluoro-4-[2-(oxan-4-yl)ethoxy]phenyl}acetyl)-7-{[(3S)-3-(methoxymethyl)-3,4-dihydro-1H-isoquinolin-2-yl]carbonyl}-3,4-dihydro-1H-isoquinolin-6-yl]-N-(4-hydroxyphenyl)-1,2-dimethylpyrrole-3-carboxamide]
BCL2 G101V [1]
  Ki: 0.5 nM
BCL2 G101V [2]
  TR_FRET EKI G101V/WT selectivty ratio: 2.3
BCL2 D103Y
  Ki: 0.23 nM
BCLXL WT
  Ki: 3 nM
  TR_FRET EKI BCLxL/WT selectivty ratio: 15.2
KMS12PE Bcl2 WT
  IC50: 2.07 nM
KMS12PE Bcl2 G101V
  IC50: 10.6 nM
KMS12PE Bcl2 D103Y
  IC50: 1.8 nM
KMS12PE Bcl2 D103E
  IC50: 1.86 nM
KMS12PE Bcl2 R129L
  IC50: 1.89 nM
KMS12PE Bcl2 D103V
  IC50: 2.78 nM

## Cc1c(N(C(=O)c2cc(-c3cc4c(cc3C(=O)N3Cc5ccccc5C[C@H]3C)CN(C(=O)Cc3ccc(OCCN5CCC(F)CC5)cc3)CC4)n(C)c2C)c2ccc(O)cc2)cc(C#N)n1C [Example 53, N-(5-cyano-1,2-dimethyl-1H-pyrrol-3-yl)-5-[2-(2-{4-[2-(4-fluoropiperidin-1-yl)ethoxy]phenyl}acetyl)-7-[(3R)-3-methyl-1,2,3,4-tetrahydroisoquinoline-2-carbonyl]-1,2,3,4-tetrahydroisoquinolin-6-yl]-N-(4-hydroxyphenyl)-1,2-dimethyl-1H-pyrrole-3-carboxamide]
BCL2 G101V [1]
  Ki: 0.2 nM
BCL2 G101V [2]
  TR_FRET EKI G101V/WT selectivty ratio: 2.8
BCL2 D103Y
  Ki: 0.18 nM
BCLXL WT
  Ki: 1.2 nM
  TR_FRET EKI BCLxL/WT selectivty ratio: 18.5
KMS12PE Bcl2 WT
  IC50: 2.88 nM
KMS12PE Bcl2 G101V
  IC50: 16.3 nM
KMS12PE Bcl2 D103Y
  IC50: 2.61 nM
KMS12PE Bcl2 D103E
  IC50: 2.76 nM
KMS12PE Bcl2 R129L
  IC50: 2.38 nM
KMS12PE Bcl2 D103V
  IC50: 5.38 nM

## Cc1c(N(C(=O)c2cc(-c3cc4c(cc3C(=O)N3Cc5ccccc5C[C@H]3C)CN(C(=O)Cc3ccc(OCCN5CCSCC5)cc3)CC4)n(C)c2C)c2ccc(O)cc2)cc(C#N)n1C [Example 55, N-(5-cyano-1,2-dimethyl-1H-pyrrol-3-yl)-N-(4-hydroxyphenyl)-1,2-dimethyl-5-{7-[(3R)-3-methyl-1,2,3,4-tetrahydroisoquinoline-2-carbonyl]-2-(2-{4-[2-(thiomorpholin-4-yl)ethoxy]phenyl}acetyl)-1,2,3,4-tetrahydroisoquinolin-6-yl}-1H-pyrrole-3-carboxamide]
BCL2 G101V [1]
  Ki: 0.2 nM
BCL2 G101V [2]
  TR_FRET EKI G101V/WT selectivty ratio: 2.4
BCL2 D103Y
  Ki: 0.16 nM
BCLXL WT
  Ki: 2.6 nM
  TR_FRET EKI BCLxL/WT selectivty ratio: 26.5
KMS12PE Bcl2 WT
  IC50: 2.61 nM
KMS12PE Bcl2 G101V
  IC50: 13.7 nM
KMS12PE Bcl2 D103Y
  IC50: 2.5 nM
KMS12PE Bcl2 D103E
  IC50: 2.91 nM
KMS12PE Bcl2 R129L
  IC50: 2.46 nM
KMS12PE Bcl2 D103V
  IC50: 4.48 nM

## Cc1c(N(C(=O)c2cc(-c3cc4c(cc3C(=O)N3Cc5ccccc5C[C@H]3CN3CCCCC3)CN(C(=O)Cc3ccc(OCCC5CCOCC5)cc3)CC4)n(C)c2C)c2ccc(O)cc2)cc(C#N)n1C [Example 66, N-(5-cyano-1,2-dimethylpyrrol-3-yl)-N-(4-hydroxyphenyl)-1,2-dimethyl-5-[2-(2-{4-[2-(oxan-4-yl)ethoxy]phenyl}acetyl)-7-{[(3S)-3-(piperidin-1-ylmethyl)-3,4-dihydro-1H-isoquinolin-2-yl]carbonyl}-3,4-dihydro-1H-isoquinolin-6-yl]pyrrole-3-carboxamide]
BCL2 G101V [1]
  Ki: 0.5 nM
BCL2 G101V [2]
  TR_FRET EKI G101V/WT selectivty ratio: 5.7
BCL2 D103Y
  Ki: 0.23 nM
BCLXL WT
  Ki: 4 nM
  TR_FRET EKI BCLxL/WT selectivty ratio: 47.6
KMS12PE Bcl2 WT
  IC50: 1.74 nM
KMS12PE Bcl2 G101V
  IC50: 10.1 nM
KMS12PE Bcl2 D103Y
  IC50: 1.3 nM
KMS12PE Bcl2 D103E
  IC50: 1.89 nM
KMS12PE Bcl2 R129L
  IC50: 1.32 nM
KMS12PE Bcl2 D103V
  IC50: 2.22 nM

## Cc1c(C(=O)N(c2ccc(O)cc2)c2cc(C#N)n(C(F)F)c2C)cc(-c2cc3c(cc2C(=O)N2Cc4ccccc4C[C@H]2CN2CCCCC2)CN(C(=O)Cc2ccc(OCCN4CCOCC4)cc2)CC3)n1C [Example 77]
BCL2 G101V [1]
  Ki: 0.3 nM
BCL2 G101V [2]
  TR_FRET EKI G101V/WT selectivty ratio: 5.1
BCL2 D103Y
  Ki: 0.14 nM
BCLXL WT
  Ki: 8 nM
  TR_FRET EKI BCLxL/WT selectivty ratio: 135.6
KMS12PE Bcl2 WT
  IC50: 4.75 nM
KMS12PE Bcl2 G101V
  IC50: 28.2 nM
KMS12PE Bcl2 D103Y
  IC50: 3.31 nM
KMS12PE Bcl2 D103E
  IC50: 4.69 nM
KMS12PE Bcl2 R129L
  IC50: 2.81 nM
KMS12PE Bcl2 D103V
  IC50: 6.28 nM

## Cc1c(C(=O)N(c2ccc(O)cc2)c2cc(C#N)n(C(F)F)c2C)cc(-c2cc3c(cc2C(=O)N2Cc4ccccc4C[C@H]2CN2CCCCC2)CN(C(=O)Cc2ccc(OCCN4CCOCC4)cc2F)CC3)n1C [Example 78, N-[5-cyano-1-(difluoromethyl)-2-methylpyrrol-3-yl]-5-[2-(2-{2-fluoro-4-[2-(morpholin-4-yl)ethoxy]phenyl}acetyl)-7-{[(3S)-3-(piperidin-1-ylmethyl)-3,4-dihydro-1H-isoquinolin-2-yl]carbonyl}-3,4-dihydro-1H-isoquinolin-6-yl]-N-(4-hydroxyphenyl)-1,2-dimethylpyrrole-3-carboxamide]
BCL2 G101V [1]
  Ki: 0.4 nM
BCL2 G101V [2]
  TR_FRET EKI G101V/WT selectivty ratio: 6.8
BCL2 D103Y
  Ki: 0.14 nM
BCLXL WT
  Ki: 7.1 nM
  TR_FRET EKI BCLxL/WT selectivty ratio: 134.0
KMS12PE Bcl2 WT
  IC50: 1.41 nM
KMS12PE Bcl2 G101V
  IC50: 8.35 nM
KMS12PE Bcl2 D103Y
  IC50: 1 nM
KMS12PE Bcl2 D103E
  IC50: 1.18 nM
KMS12PE Bcl2 R129L
  IC50: 0.9 nM
KMS12PE Bcl2 D103V
  IC50: 1.59 nM

## Cc1c(N(C(=O)c2cc(-c3cc4c(cc3C(=O)N3Cc5ccccc5C[C@H]3CN3CCC[C@H](C)C3)CN(C(=O)Cc3ccc(OCCN5CCOCC5)cc3F)CC4)n(C)c2C)c2ccc(O)cc2)cc(C#N)n1C [Example 107]
BCL2 G101V [1]
  Ki: 0.4 nM
BCL2 G101V [2]
  TR_FRET EKI G101V/WT selectivty ratio: 4.3
BCL2 D103Y
  Ki: 0.32 nM
BCLXL WT
  Ki: 7.8 nM
  TR_FRET EKI BCLxL/WT selectivty ratio: 87.6
KMS12PE Bcl2 WT
  IC50: 1.59 nM
KMS12PE Bcl2 G101V
  IC50: 9.13 nM
KMS12PE Bcl2 D103Y
  IC50: 0.97 nM
KMS12PE Bcl2 D103E
  IC50: 1.22 nM
KMS12PE Bcl2 R129L
  IC50: 1.12 nM
KMS12PE Bcl2 D103V
  IC50: 1.94 nM
